Test results: the supplement of paper PMC8092582
± gives the standard deviation of the averaged measurements.

Test system: HeLa
Assay: cell viability (CellTiter-Glo) relative to median of lowest-dilution wells of all drugs (fraction); higher = more viable cells
Procedure: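 HeLa control and CRISPR DDX11 knockout cells were seeded in 384-well plates and incubated for 72 h with each of 64 […] drugs at six concentrations. Viability was read with CellTiter-Glo and normalised to the median of the lowest (6th) dilution wells of all drugs. Two biological replicates (BR1, BR2) are averaged; the concentration unit is not stated.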

[1] = drug concentration (unit not stated): 0.04, genotype: DDX11 knockout
[2] = drug concentration (unit not stated): 0.04, genotype: control (DDX11 wild type)
[3] = drug concentration (unit not stated): 0.12, genotype: DDX11 knockout
[4] = drug concentration (unit not stated): 0.12, genotype: control (DDX11 wild type)
[5] = drug concentration (unit not stated): 0.37, genotype: DDX11 knockout
[6] = drug concentration (unit not stated): 0.37, genotype: control (DDX11 wild type)
[7] = drug concentration (unit not stated): 1.11, genotype: DDX11 knockout
[8] = drug concentration (unit not stated): 1.11, genotype: control (DDX11 wild type)
[9] = drug concentration (unit not stated): 3.33, genotype: DDX11 knockout
[10] = drug concentration (unit not stated): 3.33, genotype: control (DDX11 wild type)
[11] = drug concentration (unit not stated): 10, genotype: DDX11 knockout
[12] = drug concentration (unit not stated): 10, genotype: control (DDX11 wild type)
[13] = drug concentration (unit not stated): 0.01, genotype: DDX11 knockout
[14] = drug concentration (unit not stated): 0.01, genotype: control (DDX11 wild type)

| Compound | cell viability [1] | cell viability [2] | cell viability [3] | cell viability [4] | cell viability [5] | cell viability [6] | cell viability [7] | cell viability [8] | cell viability [9] | cell viability [10] | cell viability [11] | cell viability [12] | cell viability [13] | cell viability [14] | cell viability (drug concentration (unit not stated): 30, genotype: DDX11 knockout) | cell viability (drug concentration (unit not stated): 30, genotype: control (DDX11 wild type)) |
| --- | --- | --- | --- | --- | --- | --- | --- | --- | --- | --- | --- | --- | --- | --- | --- | --- |
| O=c1[nH]cc(F)c(=O)[nH]1 [Adrucil (Fluorouracil)] | 1 ± 0.034 | 0.976 ± 0.016 | 1.03 ± 0.046 | 1 ± 0.031 | 1.06 ± 0.046 | 1.03 ± 0.032 | 1.01 ± 0.073 | 1.05 ± 0.23 | 0.928 ± 0.26 | 1.02 ± 0.45 | 0.817 ± 0.14 | 0.945 ± 0.37 |  |  |  |  |
| COc1cc(Nc2ncc3c(n2)-c2ccc(Cl)cc2C(c2c(F)cccc2OC)=NC3)ccc1C(=O)O [Alisertib] | 0.996 ± 0.016 | 1.03 ± 0.1 | 0.752 ± 0.019 | 0.966 ± 0.34 | 0.7 ± 0.092 | 0.844 ± 0.23 | 0.859 ± 0.029 | 0.919 ± 0.16 | 0.781 ± 0.041 | 0.827 ± 0.12 |  |  | 1.056 ± 0.0065 | 1.044 ± 0.0066 |  |  |
| CN1CC[C@H](c2c(O)cc(O)c3c(=O)cc(-c4ccccc4Cl)oc23)[C@H](O)C1 [Alvocidib (Flavopiridol)] | 1.11 ± 0.067 | 1.09 ± 0.031 | 0.972 ± 0.013 | 1.16 ± 0.29 | 0.106 ± 0.023 | 0.172 ± 0.022 | 0.163 ± 0.036 | 0.244 ± 0.086 | 0.0793 ± 0.033 | 0.11 ± 0.0096 |  |  | 1.03 ± 0.079 | 1.02 ± 0.067 |  |  |
| C[C@@]1(CO)[C@H](O)CC[C@@]2(C)[C@H]1CC[C@H]1C[C@@H]3C[C@@]12CC[C@]3(O)CO [Aphidicolin] | 1.02 ± 0.036 | 1.06 ± 0.031 | 1.06 ± 0.089 | 1.08 ± 0.11 | 0.91 ± 0.027 | 1.06 ± 0.24 | 0.58 ± 0.046 | 0.79 ± 0.27 | 0.428 ± 0.045 | 0.523 ± 0.16 | 0.182 ± 0.027 | 0.23 ± 0.13 |  |  |  |  |
| Nc1ncn([C@@H]2O[C@H](CO)[C@@H](O)[C@H]2O)c(=O)n1 [Azacitidine] | 1.03 ± 0.04 | 1.03 ± 0.044 | 1.03 ± 0.019 | 1.04 ± 0.0078 | 1.01 ± 0.046 | 1.05 ± 0.021 | 1.0191 ± 0.00066 | 1.05 ± 0.013 | 1.05 ± 0.063 | 1.03 ± 0.028 | 0.872 ± 0.12 | 0.89 ± 0.28 |  |  |  |  |
| CC(C)C[C@H](NC(=O)[C@H](Cc1ccccc1)NC(=O)c1cnccn1)B(O)O [Bortezomib (Velcade)] | 0.215 ± 0.22 | 0.169 ± 0.17 | 0.0261 ± 0.012 | 0.0235 ± 0.00034 | 0.0196 ± 0.002 | 0.0189 ± 0.00099 | 0.0168 ± 0.0011 | 0.0168 ± 0.0026 | 0.0124 ± 0.00057 | 0.0137 ± 0.003 |  |  | 0.863 ± 0.14 | 0.807 ± 0.22 |  |  |
| Nc1cc(C(F)(F)F)c(-c2cc(N3CCOCC3)nc(N3CCOCC3)n2)cn1 [Buparlisib (BKM-120)] | 1.01 ± 0.023 | 1.01 ± 0.039 | 0.963 ± 0.035 | 0.999 ± 0.046 | 0.881 ± 0.18 | 0.92 ± 0.2 | 0.625 ± 0.13 | 0.772 ± 0.3 | 0.248 ± 0.08 | 0.247 ± 0.11 | 0.045 ± 0.0024 | 0.0382 ± 0.001 |  |  |  |  |
| O=C(O)C1(C(=O)O)CCC1.[NH2-].[NH2-].[Pt+2] [Carboplatin] |  |  | 0.981 ± 0.017 | 1.013 ± 0.0026 | 0.909 ± 0.031 | 1.03 ± 0.039 | 0.829 ± 0.04 | 1.05 ± 0.14 | 0.425 ± 0.056 | 0.904 ± 0.45 | 0.165 ± 0.021 | 0.331 ± 0.16 |  |  | 0.0472 ± 0.0054 | 0.0483 ± 0.0055 |
| CC(C)C[C@H](NC(=O)[C@H](CCc1ccccc1)NC(=O)CN1CCOCC1)C(=O)N[C@@H](Cc1ccccc1)C(=O)N[C@@H](CC(C)C)C(=O)[C@@]1(C)CO1 [Carfilzomib] | 0.512 ± 0.7 | 1.1 ± 0.07 | 0.414 ± 0.57 | 1.02 ± 0.14 | 0.0394 ± 0.035 | 0.385 ± 0.37 | 0.00988 ± 0.0031 | 0.0166 ± 0.0079 |  |  |  |  | 0.6 ± 0.63 | 1.11 ± 0.022 |  |  |
| CCCCCCNC(=O)n1cc(F)c(=O)[nH]c1=O [Carmofur] | 1.01 ± 0.038 | 0.998 ± 0.026 | 1.02 ± 0.019 | 1.007 ± 0.0099 | 1.09 ± 0.081 | 1.05 ± 0.044 | 1.02 ± 0.093 | 1.07 ± 0.22 | 0.956 ± 0.24 | 1.03 ± 0.46 | 0.857 ± 0.2 | 0.924 ± 0.39 |  |  |  |  |
| O=C(O)CCCc1ccc(N(CCCl)CCCl)cc1 [Chlorambucil] | 1.061 ± 0.009 | 0.974 ± 0.056 | 1.02 ± 0.062 | 0.9875 ± 0.0097 | 1.05 ± 0.11 | 1.02 ± 0.012 | 1.06 ± 0.057 | 0.999 ± 0.021 | 1.07 ± 0.042 | 1.05 ± 0.082 | 0.925 ± 0.1 | 1.03 ± 0.051 |  |  |  |  |
| N.N.[Cl][Pt][Cl] [Cisplatin] | 0.76437 ± 0.00042 | 0.986 ± 0.093 | 0.541 ± 0.11 | 0.885 ± 0.29 | 0.233 ± 0.12 | 0.464 ± 0.12 | 0.0768 ± 0.043 | 0.112 ± 0.0088 | 0.0231 ± 0.0084 | 0.024 ± 0.0028 | 0.0148 ± 0.0023 | 0.0159 ± 0.0015 |  |  |  |  |
| Nc1nc(Cl)nc2c1ncn2[C@H]1C[C@H](O)[C@@H](CO)O1 [Cladribine] | 1.04 ± 0.035 | 1.04 ± 0.052 | 1.09 ± 0.077 | 1.2 ± 0.25 | 0.935 ± 0.024 | 1.06 ± 0.25 | 0.487 ± 0.34 | 0.468 ± 0.15 | 0.135 ± 0.12 | 0.103 ± 0.056 |  |  | 0.96 ± 0.03 | 0.977 ± 0.015 |  |  |
| Nc1nc(Cl)nc2c1ncn2[C@@H]1O[C@H](CO)[C@@H](O)[C@@H]1F [Clofarabine] | 0.967 ± 0.12 | 0.999 ± 0.11 | 0.699 ± 0.46 | 0.887 ± 0.6 | 0.177 ± 0.19 | 0.181 ± 0.2 | 0.0355 ± 0.013 | 0.0535 ± 0.038 |  |  |  |  | 1.03 ± 0.061 | 1.04 ± 0.013 |  |  |
| Nc1ccn([C@@H]2O[C@H](CO)[C@@H](O)[C@@H]2O)c(=O)n1 [Cytarabine] | 1 ± 0.016 | 1.02 ± 0.058 | 0.987 ± 0.12 | 1.02 ± 0.096 | 0.728 ± 0.11 | 0.994 ± 0.21 | 0.682 ± 0.14 | 0.907 ± 0.41 |  |  |  |  | 1.05 ± 0.017 | 1.02 ± 0.028 |  |  |
